# Several values for one entry are separate records, joined by “and”; a condition that tells them apart may be missing. Equal entries are not always repeated. Where two headings read alike, the source gives them in different places.
# T1: wtECP (Homo sapiens, UniProt P12724)
# T1 construct: His6 (C); made in house; host or cells: Escherichia coli BL21 (DE3) CodonPlus
# T1 sequence (P12724 28-160): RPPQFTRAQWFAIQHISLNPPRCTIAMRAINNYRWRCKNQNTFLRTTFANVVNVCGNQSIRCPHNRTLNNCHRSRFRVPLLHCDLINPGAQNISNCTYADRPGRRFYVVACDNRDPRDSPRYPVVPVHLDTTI
# T2: ECP Q40A (Homo sapiens, UniProt P12724, Q67A)
# T2 sequence (P12724 28-160 Q67A): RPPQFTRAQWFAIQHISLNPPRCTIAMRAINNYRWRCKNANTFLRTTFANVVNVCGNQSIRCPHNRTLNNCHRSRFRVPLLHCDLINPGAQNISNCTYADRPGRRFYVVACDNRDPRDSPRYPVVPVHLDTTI
# T3: ECP H64A (Homo sapiens, UniProt P12724, H91A)
# T3 sequence (P12724 28-160 H91A): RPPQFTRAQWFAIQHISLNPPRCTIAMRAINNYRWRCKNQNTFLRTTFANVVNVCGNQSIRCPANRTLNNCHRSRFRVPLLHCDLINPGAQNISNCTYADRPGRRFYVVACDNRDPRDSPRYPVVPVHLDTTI
# T4: ECP Q40A/H64A (Homo sapiens, UniProt P12724, H91A/Q67A)
# T4 sequence (P12724 28-160 Q67A/H91A): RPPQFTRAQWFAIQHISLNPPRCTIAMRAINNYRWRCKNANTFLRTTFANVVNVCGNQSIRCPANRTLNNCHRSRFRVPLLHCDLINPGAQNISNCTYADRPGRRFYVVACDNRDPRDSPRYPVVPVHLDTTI
# T5: ECP R105A (Homo sapiens, UniProt P12724, R132A)
# T5 sequence (P12724 28-160 R132A): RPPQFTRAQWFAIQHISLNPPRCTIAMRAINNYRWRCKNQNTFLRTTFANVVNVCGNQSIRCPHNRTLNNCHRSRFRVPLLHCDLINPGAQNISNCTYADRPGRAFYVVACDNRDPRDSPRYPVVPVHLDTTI
# B1: wtECP: recombinant wild type human eosinophil cationic protein with C-terminal His6 tag, refolded from E. coli (protein, UniProt P12724 28-160, looked up)
# Eosinophil cationic protein: RPPQFTRAQWFAIQHISLNPPRCTIAMRAINNYRWRCKNQNTFLRTTFANVVNVCGNQSIRCPHNRTLNNCHRSRFRVPLLHCDLINPGAQNISNCTYADRPGRRFYVVACDNRDPRDSPRYPVVPVHLDTTI
# modifications: C-terminal His6 tag
# B2: R105A: single mutant recombinant ECP, Arg105 to Ala (protein, UniProt P12724 28-160, looked up, variant R105A)
# Eosinophil cationic protein: RPPQFTRAQWFAIQHISLNPPRCTIAMRAINNYRWRCKNQNTFLRTTFANVVNVCGNQSIRCPHNRTLNNCHRSRFRVPLLHCDLINPGAQNISNCTYADRPGRAFYVVACDNRDPRDSPRYPVVPVHLDTTI
# B3: Q40A/H64A: double mutant recombinant ECP, Gln40 and His64 to Ala (protein, UniProt P12724 28-160, looked up, variant Q40A H64A)
# Eosinophil cationic protein: RPPQFTRAQWFAIQHISLNPPRCTIAMRAINNYRWRCKNANTFLRTTFANVVNVCGNQSIRCPANRTLNNCHRSRFRVPLLHCDLINPGAQNISNCTYADRPGRRFYVVACDNRDPRDSPRYPVVPVHLDTTI
# B4: H64A: single mutant recombinant ECP, His64 to Ala (protein, UniProt P12724 28-160, looked up, variant H64A)
# Eosinophil cationic protein: RPPQFTRAQWFAIQHISLNPPRCTIAMRAINNYRWRCKNQNTFLRTTFANVVNVCGNQSIRCPANRTLNNCHRSRFRVPLLHCDLINPGAQNISNCTYADRPGRRFYVVACDNRDPRDSPRYPVVPVHLDTTI
# B5: Q40A: single mutant recombinant ECP, Gln40 to Ala (protein, UniProt P12724 28-160, looked up, variant Q40A)
# Eosinophil cationic protein: RPPQFTRAQWFAIQHISLNPPRCTIAMRAINNYRWRCKNANTFLRTTFANVVNVCGNQSIRCPHNRTLNNCHRSRFRVPLLHCDLINPGAQNISNCTYADRPGRRFYVVACDNRDPRDSPRYPVVPVHLDTTI
# B6: Bovine RNase A: bovine pancreatic RNaseA (USB), positive control (protein, UniProt P61823 27-150, looked up)
# Ribonuclease pancreatic: KETAAAKFERQHMDSSTSAASSSNYCNQMMKSRNLTKDRCKPVNTFVHESLADVQAVCSQKNVACKNGQTNCYQSYSTMSITDCRETGSSKYPNCAYKTTQANKHIIVACEGNPYVPVHFDASV
# How the values were obtained:
# [1] = biological target: T1, wtECP; experiment: ITC of heparins with wtECP; type: binding; conditions: ITC 25 °C, PBS pH 7.4
# Experimental: (§1) Thermodynamic analysis of wtECP and mutant ECPs to bind heparin was performed using a MicroCal iTC200 calorimeter (MicroCal, Northampton, USA) [38]. ECP was dialyzed against PBS before use and the same buffer was used to prepare heparin solutions. All experiments were performed at 25 °C, using ECP (20 μM, as protein) and heparin (200 μM). The protein solution was placed in a calorimeter cell and the heparin solution was loaded into the syringe injector. In individual titration, auto-controlled microsyringe injected 2 μL heparin solution into the protein solution with an interval of 120 sec. The integrated heat change was analyzed by means of non-linear regression using the MicroCal Origin software, and enthalpy change (ΔH), dissociation constant (K D), and stoichiometry value (N = X/M) were obtained from a single sigmoidal titration curve [39]. […] The effect of dilution of the heparin solution in the titration cell was removed by subtracting calorimetric data for a blank titration, which consisted of titration of heparin solution into PBS.
# [2] = biological target: T2, ECP Q40A; experiment: ITC of heparins with ECP Q40A; type: binding; conditions: ITC 25 °C, PBS pH 7.4
# Experimental: as §1
# [3] = biological target: T3, ECP H64A; experiment: ITC of heparins with ECP H64A; type: binding; conditions: ITC 25 °C, PBS pH 7.4
# Experimental: as §1
# [4] = biological target: T4, ECP Q40A/H64A; experiment: ITC of heparins with ECP Q40A/H64A; type: binding; conditions: ITC 25 °C, PBS pH 7.4
# Experimental: as §1
# [5] = biological target: T5, ECP R105A; experiment: ITC of heparins with ECP R105A; type: binding; conditions: ITC 25 °C, PBS pH 7.4
# Experimental: as §1
# [6] = system: EDN; conditions: calculated, cited from earlier work
# [7] = system: EDN W7A; design: method as in earlier work; conditions: calculated, Hep6 docked to EDN W7A; cited from earlier work
# [8] = system: EDN W10A; design: method as in earlier work; conditions: calculated, Hep6 docked to EDN W10A; cited from earlier work
# [9] = system: EDN Q14A; design: method as in earlier work; conditions: calculated, Hep6 docked to EDN Q14A; cited from earlier work
# [10] = system: EDN H15A; design: method as in earlier work; conditions: calculated, Hep6 docked to EDN H15A; cited from earlier work
# [11] = system: EDN Q34A; design: method as in earlier work; conditions: calculated, Hep6 docked to EDN Q34A; cited from earlier work
# [12] = system: EDN R36A; design: method as in earlier work; conditions: calculated, Hep6 docked to EDN R36A; cited from earlier work
# [13] = system: EDN K38A; design: method as in earlier work; conditions: calculated, Hep6 docked to EDN K38A; cited from earlier work
# [14] = system: EDN N39A; design: method as in earlier work; conditions: calculated, Hep6 docked to EDN N39A; cited from earlier work
# [15] = system: EDN Q40A; design: method as in earlier work; conditions: calculated, Hep6 docked to EDN Q40A; cited from earlier work
# [16] = system: EDN H129A; design: method as in earlier work; conditions: calculated, Hep6 docked to EDN H129A; cited from earlier work
# [17] = system: EDN L130A; design: method as in earlier work; conditions: calculated, Hep6 docked to EDN L130A; cited from earlier work
# [18] = system: EDN R132A; design: method as in earlier work; conditions: calculated, Hep6 docked to EDN R132A; cited from earlier work
# [19] = system: yeast tRNA; experiment: Ribonuclease activity, yeast tRNA digestion; type: biochemical; conditions: yeast tRNA cleavage, 37 °C, 15 min, pH 7.4
# Experimental: Ribonuclease activities of recombinant wtECP and mutant ECPs were measured using yeast tRNA (Invitrogen, USA) digestion method, using bovine pancreatic RNaseA (USB, USA) as positive control. Three hundred microliters of 100 mM sodium phosphate buffer, pH 7.4, and 500 μl diethylpyrocarbonate-ddH2O were mixed with 50 μl 0.05 μM RNaseA and 5 μM wtECP or each mutant ECP separately. Ten microliters of 5 mg/ml yeast tRNA was added and incubated at 37 °C for 0, 5, 10 and 15 min. Ice-cold 500 μl stop solution (1:1, v/v, 40 mM lanthanum nitrate and 6% perchloric acid) was added and shaken for 10 min to stop reaction. Intact yeast tRNA was […] by centrifugation at 16,100 × g at 25 °C for 5 min. One hundred microliters of supernatant in each tube was placed on to a 96-well plate. The amount of soluble tRNA in supernatant was determined by A260 nm. The calculation has been described previously.
# [20] = design: method as in PMID 9357326; conditions: relative to EDN; cited from earlier work
# [21] = system: yeast tRNA; design: method as in PMID 9649619; conditions: cited from earlier work
molecule,measurement,setting,value
"O=C(O)[C@@H]1O[C@@H](O[C@H]2[C@H](O)[C@@H](NS(=O)(=O)O)[C@@H](O[C@H]3[C@H](O)[C@@H](OS(=O)(=O)O)C(O)O[C@H]3C(=O)O)O[C@@H]2COS(=O)(=O)O)[C@H](OS(=O)(=O)O)[C@@H](O)[C@@H]1O[C@H]1O[C@H](COS(=O)(=O)O)[C@@H](O[C@@H]2O[C@@H](C(=O)O)[C@@H](O[C@H]3O[C@H](COS(=O)(=O)O)[C@@H](O)[C@H](O)[C@H]3NS(=O)(=O)O)[C@H](O)[C@H]2OS(=O)(=O)O)[C@H](O)[C@H]1NS(=O)(=O)O (stereo partly drawn) [Hep6, [GlcNS(6S)-IdoA(2S)]3]",N (sites),[1],1.77 ± 0.1 sites
same,TΔS,[1],4.8 ± 0.1 kcal/mol
same,ΔG,[1],-7.8 kcal/mol and -7.8 ± 0.1 kcal/mol
same,N (sites),[2],1.7 ± 0.1 sites
same,TΔS,[2],3.2 ± 0.2 kcal/mol
same,ΔG,[2],-7.6 kcal/mol and -7.6 ± 0.2 kcal/mol
same,ΔH,[2],-4.4 ± 0.3 kcal/mol
same,N (sites),[3],2.74 ± 0.3 sites
same,TΔS,[3],2 ± 0.3 kcal/mol
same,ΔG,[3],-7.7 kcal/mol and -7.7 ± 0.4 kcal/mol
same,ΔH,[3],-5.8 ± 0.4 kcal/mol
same,N (sites),[4],2.45 ± 0.1 sites
same,TΔS,[4],3.7 ± 0.1 kcal/mol
same,ΔG,[4],-7.5 kcal/mol and -7.5 ± 0.1 kcal/mol
same,ΔH,[4],-3.9 ± 0.2 kcal/mol
same,N (sites),[5],2.81 ± 0.1 sites
same,TΔS,[5],3.3 ± 0.1 kcal/mol
same,ΔG,[5],-7.9 kcal/mol and -7.9 ± 0.2 kcal/mol
same,ΔH,[5],-4.4 ± 0.2 kcal/mol
same,Binding energy,"[6]; Hep6 docked to wild type EDN, previous docking simulation data",-9.27 kcal/mol
same,Contribution,[6]; contribution of EDN H15 to Hep6 binding energy,-0.34 kcal/mol
same,Contribution,[6]; contribution of EDN K38 to Hep6 binding energy,-0.61 kcal/mol
same,Contribution,[6]; contribution of EDN L130 to Hep6 binding energy,-0.08 kcal/mol
same,Contribution,[6]; contribution of EDN N39 to Hep6 binding energy,-0.29 kcal/mol
same,Contribution,[6]; contribution of EDN Q14 to Hep6 binding energy,-0.46 kcal/mol
same,Contribution,[6]; contribution of EDN Q34 to Hep6 binding energy,-0.39 kcal/mol
same,Contribution,[6]; contribution of EDN Q40 to Hep6 binding energy,-0.77 kcal/mol
same,Contribution,[6]; contribution of EDN R36 to Hep6 binding energy,-0.56 kcal/mol
same,Contribution,[6]; contribution of EDN R132 to Hep6 binding energy,-0.46 kcal/mol
same,Contribution,[6]; contribution of EDN W7 to Hep6 binding energy,-0.34 kcal/mol
same,Contribution,[6]; contribution of EDN W10 to Hep6 binding energy,-0.39 kcal/mol
same,Contribution,[6]; contribution of EDN residue printed H120 (row H129A) to Hep6 binding energy,-0.22 kcal/mol
same,Binding energy,[7],-8.93 kcal/mol
same,Binding energy,[8],-8.88 kcal/mol
same,Binding energy,[9],-8.81 kcal/mol
same,Binding energy,[10],-8.93 kcal/mol
same,Binding energy,[11],-8.88 kcal/mol
same,Binding energy,[12],-8.71 kcal/mol
same,Binding energy,[13],-8.66 kcal/mol
same,Binding energy,[14],-8.98 kcal/mol
same,Binding energy,[15],-8.50 kcal/mol
same,Binding energy,[16],-9.05 kcal/mol
same,Binding energy,[17],-9.19 kcal/mol
same,Binding energy,[18],-8.81 kcal/mol
B1,RNase activity,[19],0.0049 soluble tRNA/pmol and 0.0049 ± 0.0001 soluble tRNA/pmol
same,Ribonucleolytic activity of EDN,[20],1%
B2,RNase activity,[19],0.0032 soluble tRNA/pmol and 0.0032 ± 0.0002 soluble tRNA/pmol
B3,RNase activity,[19],0.0056 soluble tRNA/pmol and 0.0056 ± 0.0002 soluble tRNA/pmol
B4,RNase activity,[19],0.0068 soluble tRNA/pmol and 0.0068 ± 0.0001 soluble tRNA/pmol
B5,RNase activity,[19],0.0043 soluble tRNA/pmol and 0.0043 ± 0.0001 soluble tRNA/pmol
B6,RNase activity,[19],1.1710 ± 0.0131 soluble tRNA/pmol
same,RNase activity,[19]; listed as bovine RNaseA,1.171 soluble tRNA/pmol
same,"RNase activity, reported number",[21],1.208 soluble tRNA/pmol

# Source: paper PMC3859622, “Functional Characterization of ECP-Heparin Interaction: A Novel Molecular Model” (PLoS ONE, 2013)
